Reference: patent US20230277525A1, “CONJUGATE OF FUNCTIONAL DRUG AND TOLL-LIKE RECEPTOR 7 OR 8 AGONIST OF WHICH ACTIVE SITE IS TEMPORARILY INACTIVATED AND USE THEREOF” (priority 2020, published 2023)

B1: complex of the OVA protein antigen and resiquimod, having a bond cleaved by cathepsin-B: OVA protein antigen linked to resiquimod active site via Mal-Val-Cit-PAB linker cleaved by cathepsin-B (conjugate, UniProt P01012 2-386, looked up)
Ovalbumin: GSIGAASMEFCFDVFKELKVHHANENIFYCPIAIMSALAMVYLGAKDSTRTQINKVVRFDKLPGFGDSIEAQCGTSVNVHSSLRDILNQITKPNDVYSFSLASRLYAEERYPILPEYLQCVKELYRGGLEPINFQTAADQARELINSWVESQTNGIIRNVLQPSSVDSQTAMVLVNAIVFKGLWEKAFKDEDTQAMPFRVTEQESKPVQMMYQIGLFRVASMASEKMKILELPFASGTMSMLVLLPDEVSGLEQLESIINFEKLTEWTSSNVMEERKIKVYLPRMKMEEKYNLTSVLMAMGITDVFSSSANLSGISSAESLKISQAVHAAHAEINEAGREVVGSAEAGVDAASVSEEFRADHPFLFCIKHIATNAVLFFGRCVSP
modifications: resiquimod via Mal-Val-Cit-PAB linker

Legend:
IL-6 [1] = test: blood inflammatory cytokine (IL-6) level after intravenous injection, AAC-001 study; assay type: in vivo; conditions: mouse, blood collected at 0, 1, 2 and 4 hours, ELISA, FIG. 18
Description: To confirm the effect of the antibody-resiquimod complex (AAC-001) synthesized in the same manner as in Example 14.1 on the secretion of inflammatory cytokine in blood, after intravenously injecting the AAC-001 complex or resiquimod into a mouse, blood samples were collected at 0, 1, 2, and 4 hours. The collected blood sample was centrifuged at 10,000×g for 20 minutes to separate serum, and the concentration of IL-6, which is a representative inflammatory cytokine, present in serum was measured using the Invitrogen mouse IL-6 ELISA kit.

IL-6 [2] = test: blood inflammatory cytokine (IL-6) level after intravenous injection, AAC-002 study; assay type: in vivo; conditions: mouse, two hours after intravenous injection, ELISA; FIG. 20
Description: To confirm the effect of the antibody-resiquimod complex (AAC-002) synthesized in the same manner as in Example 15.1 on the secretion of an inflammatory cytokine in blood, two hours after the AAC-002 complex (conjugated TLR7/8a-Blocked active site) was intravenously injected into a mouse, blood samples were collected. The collected blood sample was centrifuged at 10,000×g for 20 minutes to separate serum, and the concentration of IL-6, which is a representative inflammatory cytokine, present in serum was measured using the Invitrogen mouse IL-6 ELISA kit. As controls, a phosphate-buffered saline-injected group (Blank), a resiquimod only-injected group (Bare TLR7/8a-Uncomplexd), and a group into which an antibody-resiquimod complex in which the antibody binds to a site other than the active site, is injected (conjugated TLR7/8a-Live active site) were used for comparison.

[3] = size of complex in aqueous solution by spectroscopy; assay type: physicochemical; conditions: in an aqueous solution; FIG. 21
Description: To synthesize a complex of a protein antigen, which is a type of sulfhydryl group-containing protein-based drug, and resiquimod, having a bond cleaved by cathepsin-B, first, resiquimod to which a linker binds to its active site was synthesized. In further detail, resiquimod (10 mg) and Mal-Val-Cit-PAB-PNP (47.2 mg) were added to 2 mL of N,N-dimethylformamide (DMF), and then dissolved. Afterward, N,N-diisopropylethylamine (DIPEA; 6.7 μL) and 1-hydroxybenzotriazole hydrate (1-HOBt; 315 μg) were added. Then, a mixture was prepared by stirring at room temperature for 16 hours. The OVA protein antigen (10 mg) was added to the prepared mixture and reacted, thereby preparing a complex, and then the resulting complex was purified by thin-layer chromatography, thereby preparing an OVA protein antigen-resiquimod complex having a bond cleaved by cathepsin-B. Then, the prepared complex was subjected to spectroscopy to confirm its size.

Molecule | inflammatory cytokine (IL-6) level in serum (IL-6 [1]) | inflammatory cytokine (IL-6) level in serum (IL-6 [2]) | nanoparticle size [3]
CCOCc1nc2c(N)nc3ccccc3c2n1CC(C)(C)O [resiquimod] | promotes the secretion of inflammatory cytokines and induces a cytokine storm | remarkably increasing an inflammatory cytokine level in blood | –
B1 | – | – | approximately 99.7 nm
